In assay [1] the target is T1, porcine α2δ1 (pα2δ1) calcium channel subunit (Sus scrofa, UniProt A0A287BIN3).
T1 construct: expressed in transfected cells
Put plainly: [3H]gabapentin radioligand binding to membranes from HEK293 stable cell line GKS02. The settings on record: for affinity in competition with [3H]gabapentin binding, in words: pα2δ1. As for the experimental part:
Cell culture and transfection. […] The media were supplemented with 50 units/mL penicillin, 50 μg/mL streptomycin, and 10% heat-inactivated fetal bovine serum (FBS), in a humidified incubator with 95% air and 5% CO2 at 37° C. For transient transfection into COS-7 cells, 20 μg of plasmid DNA (vector or the same vector with α2δ insert) was incubated with 30 μL of lipofectamine. The mixture was overlaid onto the cells in 1.5 mL serum-free medium and incubated for 5 hours. Then FBS was added to the dishes to bring the final concentration to 10%. The medium was changed next morning. Forty-eight hours after the transfection, the cells were harvested for membrane preparation. For stable transfection of porcine α2δ1 and human α2δ2 into HEK 293 cells, the same procedure was applied as that for a transient transfection except for that 800 μg/mL G418 (gentacin) was added to the cells 48 hours after the transfection. […] In addition, hosts for expression of α2δ2 protein binding assays can also include eukaryotic expression systems such as yeast, insect cells, and mammalian cells (CHO, COS-7, HEK293, etc.).
(§1) Membrane preparation. Membranes were prepared from tissues or cultured cells. The cells were washed twice with cold PBS and then scraped off with cold buffer containing Tris (5 mM, pH 7.4), EDTA (5 mM), PMSF (0.1 mM), leupeptin (0.02 mM), and pepstatin (0.02 mM). The cells were incubated on ice for 30 minutes, followed by sonication for 30 to 40 seconds. For membrane preparations from tissues, the tissues were sliced into small pieces and subjected to sonication at interval of 10 seconds 4 times. The resulting homogenates from tissues or cultured cells were centrifuged for 10 minutes at 750 to 1000×g, and then the supernatants were centrifuged at 50,000×g for 30 minutes. The resulting pellets were resuspended in the same buffer as described above.
Binding assays. […] The membranes (100 μg of proteins for transiently transfected cells, 20 μg for GKS02 cell membranes, and 10 μg for GKS07 cell membranes) were incubated in 10 mM HEPES (N-[2-hydroxyethyl]piperazine-N′-[2-ethanesulfonic acid]) (pH 7.4) for 40 to 50 minutes at room temperature, and then filtered onto pre-wetted GF/C membranes and quickly washed five times with 3 mL of ice cold 50 mM Tris buffer (pH 7.4). The filters were dried and counted in a liquid scintillation counter. […] The specific binding was obtained by subtracting nonspecific binding from the total binding.

Assay [2] addresses T2, human α2δ2 (hα2δ2) calcium channel subunit (Homo sapiens, UniProt Q9NY47).
T2 construct: covered the whole open reading frame of hα2δ2 cDNA; expressed in transfected cells
Kind of assay: [3H]gabapentin radioligand binding to membranes from HEK293 stable cell line GKS07. Particulars: for affinity in competition with [3H]gabapentin binding, in words: hα2δ2. As for the experimental part:
Cell culture and transfection. COS-7 and HEK293 cells were cultured in DMEM and RPMI 1640 media, respectively. The media were supplemented with 50 units/mL penicillin, 50 μg/mL streptomycin, and 10% heat-inactivated fetal bovine serum (FBS), in a humidified incubator with 95% air and 5% CO2 at 37° C. For transient transfection into COS-7 cells, 20 μg of plasmid DNA (vector or the same vector with α2δ insert) was incubated with 30 μL of lipofectamine. The mixture was overlaid onto the cells in 1.5 mL serum-free medium and incubated for 5 hours. Then FBS was added to the dishes to bring the final concentration to 10%. The medium was changed next morning. Forty-eight hours after the transfection, the cells were harvested for membrane preparation. For stable transfection of porcine α2δ1 and human α2δ2 into HEK 293 cells, the same procedure was applied as that for a transient transfection except for that 800 μg/mL G418 (gentacin) was added to the cells 48 hours after the transfection. […] The cell line has ATCC No. PTA-1823. In addition, hosts for expression of α2δ2 protein binding assays can also include eukaryotic expression systems such as yeast, insect cells, and mammalian cells (CHO, COS-7, HEK293, etc.).
as §1
Binding assays. […] The membranes (100 μg of proteins for transiently transfected cells, 20 μg for GKS02 cell membranes, and 10 μg for GKS07 cell membranes) were incubated in 10 mM HEPES (N-[2-hydroxyethyl]piperazine-N′-[2-ethanesulfonic acid]) (pH 7.4) for 40 to 50 minutes at room temperature, and then filtered onto pre-wetted GF/C membranes and quickly washed five times with 3 mL of ice cold 50 mM Tris buffer (pH 7.4). The filters were dried and counted in a liquid scintillation counter. For determining nonspecific binding, the binding assays were performed in the presence of 10 μM pregabalin (Gee N. S., Brown J. P., Dissanayake V. U., Offord J.; Thurlow R., Woodruff G. N., J. Biol. Chem., 1996;271:5768–5776). The specific binding was obtained by subtracting nonspecific binding from the total binding. Clone #7 was identified as the highest α2δ2 subunit expressing clone. Binding assays can also be performed using recombinant and/or purified α2δ2 protein from human and other mammalian species, for screening α2δ2 subtype-selective inhibitors.

Where two headings read alike, the source gives them in different places.

We go through six compounds from patent US7067262B2, “Cell line for the expression of an α2δ2 calcium channel subunit and methods of use” (Warner Lambert Company LLC, priority 2000, dated 2006).

T2 sequence (Q9NY47 19-1145 isoform Q9NY47-3 limits assumed): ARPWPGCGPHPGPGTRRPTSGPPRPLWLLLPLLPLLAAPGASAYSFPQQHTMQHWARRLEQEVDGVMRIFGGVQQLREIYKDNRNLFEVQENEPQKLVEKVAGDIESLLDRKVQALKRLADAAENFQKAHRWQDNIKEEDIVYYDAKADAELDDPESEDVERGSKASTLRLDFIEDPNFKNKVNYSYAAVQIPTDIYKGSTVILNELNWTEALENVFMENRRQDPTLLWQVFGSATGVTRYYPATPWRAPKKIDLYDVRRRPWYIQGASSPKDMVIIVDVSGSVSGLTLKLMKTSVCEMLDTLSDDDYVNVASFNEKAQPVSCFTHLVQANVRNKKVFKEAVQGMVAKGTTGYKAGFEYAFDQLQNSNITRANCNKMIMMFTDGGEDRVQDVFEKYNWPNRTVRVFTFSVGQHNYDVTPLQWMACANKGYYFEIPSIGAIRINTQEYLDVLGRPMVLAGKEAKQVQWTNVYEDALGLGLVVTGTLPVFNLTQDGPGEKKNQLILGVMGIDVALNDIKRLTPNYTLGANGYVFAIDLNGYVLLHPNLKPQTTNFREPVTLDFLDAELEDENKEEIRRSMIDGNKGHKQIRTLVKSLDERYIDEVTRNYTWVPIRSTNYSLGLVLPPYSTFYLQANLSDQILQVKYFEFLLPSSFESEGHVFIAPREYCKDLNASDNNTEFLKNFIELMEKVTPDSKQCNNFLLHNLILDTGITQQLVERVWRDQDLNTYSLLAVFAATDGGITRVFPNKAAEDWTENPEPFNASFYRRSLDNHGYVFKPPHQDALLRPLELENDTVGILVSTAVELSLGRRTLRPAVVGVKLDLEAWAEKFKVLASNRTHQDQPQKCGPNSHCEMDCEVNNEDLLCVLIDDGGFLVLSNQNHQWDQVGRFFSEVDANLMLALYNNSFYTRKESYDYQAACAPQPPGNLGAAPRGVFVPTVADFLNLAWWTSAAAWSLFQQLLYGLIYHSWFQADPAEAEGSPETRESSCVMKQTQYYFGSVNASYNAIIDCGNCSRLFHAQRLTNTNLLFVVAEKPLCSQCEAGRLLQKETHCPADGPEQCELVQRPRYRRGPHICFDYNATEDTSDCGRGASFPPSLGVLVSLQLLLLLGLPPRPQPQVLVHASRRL
T2 sequence (Q9NY47 1002-1150 partner limits assumed): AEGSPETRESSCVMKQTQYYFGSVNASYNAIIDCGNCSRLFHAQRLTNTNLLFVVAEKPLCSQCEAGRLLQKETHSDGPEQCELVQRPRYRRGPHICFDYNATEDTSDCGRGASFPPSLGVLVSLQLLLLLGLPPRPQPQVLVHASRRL
T1 sequence (A0A287BIN3 25-1109): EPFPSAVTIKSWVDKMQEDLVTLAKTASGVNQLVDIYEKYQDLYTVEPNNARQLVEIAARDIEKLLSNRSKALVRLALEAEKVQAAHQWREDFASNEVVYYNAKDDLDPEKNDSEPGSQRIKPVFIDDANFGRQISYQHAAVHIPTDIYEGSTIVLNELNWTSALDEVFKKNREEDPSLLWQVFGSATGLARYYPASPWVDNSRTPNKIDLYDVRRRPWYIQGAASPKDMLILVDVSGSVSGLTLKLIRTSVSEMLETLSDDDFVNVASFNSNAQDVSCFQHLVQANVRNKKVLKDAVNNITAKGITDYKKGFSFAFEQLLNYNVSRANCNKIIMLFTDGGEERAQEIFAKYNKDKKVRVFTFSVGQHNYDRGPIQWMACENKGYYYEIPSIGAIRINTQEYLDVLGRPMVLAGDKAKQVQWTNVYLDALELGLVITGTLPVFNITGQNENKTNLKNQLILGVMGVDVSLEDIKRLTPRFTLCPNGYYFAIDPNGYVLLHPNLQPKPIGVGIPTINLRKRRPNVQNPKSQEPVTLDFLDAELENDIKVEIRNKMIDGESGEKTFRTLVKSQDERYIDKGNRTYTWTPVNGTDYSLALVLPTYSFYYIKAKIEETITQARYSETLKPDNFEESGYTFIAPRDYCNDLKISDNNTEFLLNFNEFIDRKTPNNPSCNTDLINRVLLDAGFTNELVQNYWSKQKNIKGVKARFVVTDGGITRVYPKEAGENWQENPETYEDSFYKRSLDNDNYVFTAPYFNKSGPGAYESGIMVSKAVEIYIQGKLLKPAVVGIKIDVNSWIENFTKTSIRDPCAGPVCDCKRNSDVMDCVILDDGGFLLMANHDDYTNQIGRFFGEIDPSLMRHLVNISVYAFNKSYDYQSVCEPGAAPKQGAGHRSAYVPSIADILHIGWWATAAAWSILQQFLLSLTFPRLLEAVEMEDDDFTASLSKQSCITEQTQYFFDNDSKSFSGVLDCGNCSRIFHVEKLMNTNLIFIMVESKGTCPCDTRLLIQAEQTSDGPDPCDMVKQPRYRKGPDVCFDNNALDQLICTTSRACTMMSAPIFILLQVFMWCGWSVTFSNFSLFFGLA

By IC50 is commonly meant the concentration that inhibits the measured activity by half. In the case of `CC(C)C[C@H](CN)CC(=O)O` [Pregabalin, (S+)-3-isobutyl GABA], the concentration for half-maximal inhibition (IC50) in assay [1] stood at 149 nM; in assay [2], 96 nM.
On to `N[C@@H](Cc1ccccc1)C(=O)O` [L-phenylalanine], for which the IC50 in assay [1] turned out to be 825 nM; in assay [2], 2960 nM. Further, the “affinity in competition with [3H]gabapentin binding, in words” value (“affinity in competition” for short) in assay [2] is on record as “weak”.
On to `CC(C)C[C@H](N)C(=O)O` [L-leucine], for which, in assay [1], the half-inhibitory concentration (IC50) came to 118 nM and the “affinity in competition” value is given as “markedly more potent than its D-enantiomer”. For the same compound, in assay [2], the IC50 was found to be 205 nM and the “affinity in competition” value was “markedly more potent than its D-enantiomer”.
In the case of `CC(C)C[C@@H](N)C(=O)O` [D-leucine], the IC50 is 199000 nM in assay [1] and 152000 nM in assay [2].
In the case of `NCC1(CC(=O)O)CCCCC1` [Gabapentin, 1-(aminomethyl)cyclohexane acetic acid], the IC50 in assay [2] amounted to 282 nM.
On to `NC1(C(=O)O)CC2CCC1C2` (stereo not shown) [BCH], for which the “affinity in competition” value in assay [1] and in assay [2] was “weak” throughout. The IC50 in assay [1] (read-out: IC50 Values for Inhibition of [3H]Gabapentin Binding, GKS02 (pα2δ1), membranes from HEK293 cell line GKS02, 20 nM [3H]gabapentin) is 1030 nM; in assay [2] (read-out: IC50 Values for Inhibition of [3H]Gabapentin Binding, GKS07 (hα2δ2), membranes from HEK293 cell line GKS07, 20 nM [3H]gabapentin), 775 nM.
